Legend:
[1] = tested on: normal NK cells expanded with K562-aAPC; assay: drug sensitivity score (DSS) (DSS units); higher = more sensitive; extreme values may be limits of the assay; settings: 72 h; IL-2 2.5 ng/mL
Method: (§1)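 Drug sensitivity and resistance testing on K562-aAPC-expanded normal NK cells: 5 concentrations (10-fold steps over a 10,000-fold range), 72 h at 37 °C, viability by CellTiter-Glo normalised to DMSO and benzethonium chloride controls; DSS from the fitted curve.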

[2] = tested on: IMC-1 (IL-2 20 ng/mL); assay: as above; settings: 72 h
[3] = tested on: NKL (IL-2 2.5 ng/mL); assay: as above; settings: 72 h
[4] = tested on: normal primary NK cells, pool 3 (3 donors) (IL-2 2.5 ng/mL); assay: as above; settings: 72 h
[5] = tested on: NK-YS (IL-2 2.5 ng/mL); assay: as above; settings: 72 h
[6] = tested on: KHYG-1 (IL-2 2.5 ng/mL); assay: as above; settings: 72 h
[7] = tested on: DERL-7 (IL-2 2.5 ng/mL); assay: as above; settings: 72 h
[8] = tested on: NK-92 (IL-2 2.5 ng/mL); assay: as above; settings: 72 h
[9] = tested on: YT (IL-2 2.5 ng/mL); assay: as above; settings: 72 h
[10] = tested on: normal primary NK cells, pool 2 (3 donors) (IL-2 2.5 ng/mL); assay: as above; settings: 72 h
[11] = tested on: KAI3 (IL-2 2.5 ng/mL); assay: as above; settings: 72 h
[12] = tested on: normal primary NK cells, pool 1 (3 donors), resting (IL-2 0 ng/mL); assay: as above; settings: 72 h
[13] = tested on: SNK-6 (IL-2 2.5 ng/mL); assay: as above; settings: 72 h
[14] = tested on: normal primary NK cells, pool 1 (3 donors) (IL-2 2.5 ng/mL); assay: as above; settings: 72 h
[15] = tested on: IMC-1 (IL-2 20 ng/mL); assay: percent inhibition of viability; higher = more inhibition; settings: 72 h
[16] = tested on: NKL (IL-2 2.5 ng/mL); assay: as above; settings: 72 h
[17] = tested on: normal primary NK cells, pool 3 (3 donors) (IL-2 2.5 ng/mL); assay: as above; settings: 72 h
[18] = tested on: NK-YS (IL-2 2.5 ng/mL); assay: as above; settings: 72 h
[19] = tested on: KHYG-1 (IL-2 2.5 ng/mL); assay: as above; settings: 72 h
[20] = tested on: DERL-7 (IL-2 2.5 ng/mL); assay: as above; settings: 72 h
[21] = tested on: NK-92 (IL-2 2.5 ng/mL); assay: as above; settings: 72 h
[22] = tested on: YT (IL-2 2.5 ng/mL); assay: as above; settings: 72 h
[23] = tested on: normal primary NK cells, pool 2 (3 donors) (IL-2 2.5 ng/mL); assay: as above; settings: 72 h
[24] = tested on: KAI3 (IL-2 2.5 ng/mL); assay: as above; settings: 72 h
[25] = tested on: normal primary NK cells, pool 1 (3 donors), resting (IL-2 0 ng/mL); assay: as above; settings: 72 h
[26] = tested on: SNK-6 (IL-2 2.5 ng/mL); assay: as above; settings: 72 h
[27] = tested on: normal primary NK cells, pool 1 (3 donors) (IL-2 2.5 ng/mL); assay: as above; settings: 72 h
[28] = tested on: normal NK cells expanded with K562-aAPC; assay: as above; settings: 72 h, IL-2 2.5 ng/mL
Method: as §1

C1=N/C2=N/c3ccc(OCCN4CCCC4)c(c3)COC/C=C/COCc3cccc(c3)C(=C1)N2 [Pacritinib] (max concentration tested 10000 nM)
Settings	drug sensitivity score
[1]	12.8
[2]	4.5
[3]	13.1
[4]	14.1
[5]	11.7
[6]	12.8
[7]	14.1
[8]	10.7
[9]	12.2
[10]	16.2
[11]	14.2
[12]	12.6
[13]	9.9
[14]	16.2

percent inhibition of viability [%]
Settings	1 nM	10 nM	100 nM	1000 nM	10000 nM
[15]	-5.72	-0.5	-10.2	-17.7	98.5
[16]	-10.8	-10.3	-2.07	65.3	102
[17]	-10.8	-10.8	0.28	75.3	98.7
[18]	-5.53	0.76	3.37	50.8	102
[19]	-2.5	-2.14	-0.78	61.7	102
[20]	-0.5	3.08	13.1	64.9	99.9
[21]	-16.4	-11.8	1.4	37.9	100
[22]	-5.32	-0.86	-1.84	55.9	102
[23]	-8.58	0.56	8.47	82.3	95.9
[24]	-4.38	0.97	8.91	68.1	102
[25]	-8.26	-5.07	-1.15	60.6	99.4
[26]	-2.06	1.27	-10.4	30.5	99.4
[27]	2.77	-5.07	8.34	82.1	99.9
[28]	-2.28	-6.13	9.28	58.8	99.4

From the supplement of paper PMC5908809
